The target in one test is RET (Homo sapiens, UniProt P07949). The following applies: cited from earlier work.
The target in the next test is T1, SLC34A2-ROS1 fusion (Homo sapiens, UniProt P08922).
T1 construct: a portion of the ROS1 polypeptide comprising the kinase domain of the ROS1 protein; N-terminal portion of SLC34A2 (natural fusion partner, O95436); host or cells: HCC-78 (human NSCLC adenocarcinoma); the other entry of the earlier key: SLC34A2 (O95436, Sodium-dependent phosphate transport protein 2B)
T1 sequence (P08922 1945-2222 limits assumed): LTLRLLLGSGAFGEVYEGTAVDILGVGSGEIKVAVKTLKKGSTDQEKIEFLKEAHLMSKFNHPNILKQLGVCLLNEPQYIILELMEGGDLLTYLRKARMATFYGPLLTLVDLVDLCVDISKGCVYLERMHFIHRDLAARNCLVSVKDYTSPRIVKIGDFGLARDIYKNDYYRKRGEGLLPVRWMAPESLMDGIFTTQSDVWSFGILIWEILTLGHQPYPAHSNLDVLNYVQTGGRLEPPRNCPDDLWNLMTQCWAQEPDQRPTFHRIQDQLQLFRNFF
Put plainly: Inhibition of ROS1 phosphorylation in HCC-78 cells (western blot). The test is classed as cell-based. The conditions noted are these: single escalating doses, 3 hour incubation, versus Crizotinib. As to the method:
HCC-78 cells, a human lung NSCLC adenocarcinoma cell line (DSMZ, ACC 563) harboring the activating SLC34A2-ROS1 fusion and phosphor-Met, were seeded at 3×10^5 cells/well onto 6-well plates (Nunclon, 152795), RPMI 1640 (ATCC, 30-2001) containing 10% FBS (heat-inactivated, Cellgro) and 1% penicillin-streptomycin (Cellgro). DMSO or serial dilutions of compound 1 in fresh medium with 10% FBS in a final concentration of 0.3% DMSO (vehicle) were added to the cells and incubated for 3 hour. After treatment, cells were collected and washed with cold PBS and immediately lysed with 0.15 mL of cold lysis buffer (50 mM Tris HCl, pH 8.0, 150 mM NaCl, 1% NP 40, 0.1% SDS, 0.5% sodium deoxycholate, 1 mM EDTA, 50 mM NaF, 1 mM sodium pyrophosphate, 1 mM Na3VO4, 2 mM PMSF, 10 μg/mL aprotinin, 5 μg/mL leupeptin and 5 pμg/mL pepstatin A). Lysates were collected, and protein concentrations were measured by the BCA method (Pierce). […] The membranes were scanned using the Odyssey Scanner (Li-Cor) and the signal intensity of each band was quantified using ImageQuant (Molecular Devices). IC50 values were calculated based on the signal with compound treatment compared to the vehicle (DMSO) control.
On the technique in general: A western blot detects proteins with antibodies after separation by electrophoresis.

Test [1] concerns HCC-78 NSCLC cells (SLC34A2-ROS1 fusion). In words: ROS1-dependent proliferation of HCC-78 NSCLC cells (BrdU ELISA). The test is classed as cell-based. The conditions noted are these: Homo sapiens. The method, then: (§1) Both HCC-78 and NCI-H2228 cells were received from DSMZ and ATCC respectively as a frozen biological sample thawed into a T-75 flask (Nunc) and grown until 80 to 90% confluent for adherent cells or until cells were at a density of 1-2×10^6 cells/mL for suspension cells.
(§2) Cells were grown at 37° C. in a humidified, 5% CO2 atmosphere for 16 hours. […] Cells were assayed for proliferation by monitoring BrdU incorporation. […] After BrdU labelling, cells were fixed with FixDenat solution. anti-BrdU peroxidase (POD) conjugate was added and plates were washed with 1×PBS. Substrate solution was added, and luminescence measurements were taken on a Victor Wallac V plate reader (Perkin Elmer).

The test system of test [2] is NCI-H2228 cells (EML4-ALK fusion). Put plainly: BrdU ELISA proliferation of NCI-H2228 cells. The following applies: Homo sapiens, BrdU incorporation. The test is classed as cell-based. The method, then: as §1, §2

Like-named read-outs stand apart in the source and are kept apart here.

The term IC50 denotes the concentration at which inhibition is half-maximal.

RET, sequence (P07949 29-1114, species assumed): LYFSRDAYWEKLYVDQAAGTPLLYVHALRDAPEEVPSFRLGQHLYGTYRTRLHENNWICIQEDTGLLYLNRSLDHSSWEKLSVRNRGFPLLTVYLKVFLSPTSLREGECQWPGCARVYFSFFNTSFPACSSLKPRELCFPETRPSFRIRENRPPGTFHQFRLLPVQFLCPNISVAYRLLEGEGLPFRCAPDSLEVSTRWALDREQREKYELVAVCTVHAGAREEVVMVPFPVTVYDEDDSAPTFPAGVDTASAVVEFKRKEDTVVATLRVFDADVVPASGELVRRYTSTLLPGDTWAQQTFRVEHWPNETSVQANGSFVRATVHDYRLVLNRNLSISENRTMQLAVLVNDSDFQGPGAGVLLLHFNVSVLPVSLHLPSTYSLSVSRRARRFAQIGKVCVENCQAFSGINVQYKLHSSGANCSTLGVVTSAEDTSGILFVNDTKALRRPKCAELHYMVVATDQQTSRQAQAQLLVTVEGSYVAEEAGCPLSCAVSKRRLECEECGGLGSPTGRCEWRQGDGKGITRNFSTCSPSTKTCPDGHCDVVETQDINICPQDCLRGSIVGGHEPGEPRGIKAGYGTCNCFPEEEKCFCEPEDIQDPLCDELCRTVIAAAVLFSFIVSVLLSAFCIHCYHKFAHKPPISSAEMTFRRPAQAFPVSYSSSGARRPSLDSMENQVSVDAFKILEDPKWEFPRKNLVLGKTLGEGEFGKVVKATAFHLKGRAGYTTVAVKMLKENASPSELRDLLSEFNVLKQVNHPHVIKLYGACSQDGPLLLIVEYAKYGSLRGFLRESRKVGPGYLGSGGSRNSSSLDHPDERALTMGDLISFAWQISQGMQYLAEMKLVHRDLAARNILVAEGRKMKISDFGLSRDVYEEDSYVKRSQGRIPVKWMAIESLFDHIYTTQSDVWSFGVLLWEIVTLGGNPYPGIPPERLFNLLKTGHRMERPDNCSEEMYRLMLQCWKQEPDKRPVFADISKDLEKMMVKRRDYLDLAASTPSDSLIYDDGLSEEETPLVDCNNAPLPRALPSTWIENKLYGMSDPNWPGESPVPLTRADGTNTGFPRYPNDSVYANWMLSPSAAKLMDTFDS

Consider `COc1cc2nccc(Oc3ccc(NC(=O)C4(C(=O)Nc5ccc(F)cc5)CC4)cc3)c2cc1OC` [Compound 1, N-(4-{[6,7-bis(methyloxy)quinolin-4-yl]oxy}phenyl)-N′-(4-fluorophenyl)cyclopropane-1,1-dicarboxamide], for which, on RET, the “inhibitor of RET” value was “potent inhibitor”. Moreover, the “Inhibition of SLC34A2-ROS1 mediated kinase activity (ROS1 phosphorylation)” value at SLC34A2-ROS1 fusion was “more potent than the comparator control”. The half-inhibitory concentration (IC50) was 10 to 100 nM in test [1] (HCC78, HCC-78, 48 hr incubation, BrdU incorporation, read-out: 48 hr Prolif. IC50); 10 to 100 nM in test [1] (HCC78, HCC-78, 72 hr incubation, BrdU incorporation, read-out: 72 hr Prolif. IC50); 1000 to 5000 nM in test [2] (NCI-H2228, 48 hr incubation, read-out: 48 hr Prolif. IC50); 5000 to 10000 nM in test [2] (NCI-H2228, 72 hr incubation, read-out: 72 hr Prolif. IC50).
In the case of `C[C@@H](Oc1cc(-c2cnn(C3CCNCC3)c2)cnc1N)c1c(Cl)ccc(F)c1Cl` [Crizotinib, 3-[(1R)-1-(2,6-dichloro-3-fluorophenyl)ethoxy]-5-(1-piperidin-4-ylpyrazol-4-yl)pyridin-2-amine, reference compound], the IC50 in test [1] (HCC78, 48 h, read-out: 48 hr Prolif. IC50 (nM)) was in the range of 100 to 500 nM; in test [1] (HCC78, 72 h, read-out: 72 hr Prolif. IC50 (nM)), 10 to 100 nM.

(Values after patent US20170042880A1, “Method of Treating Lung Adenocarcinoma” (Exelixis, Inc., priority 2014, published 2017).)
